These compounds were tested against Serine/threonine-protein phosphatase 2A catalytic subunit alpha (assay: Inhibition of protein phosphatase 2A (PP2A) was determined by standard phosphorylase a inhibition assay).
In the case of `CO[C@@H]([C@H](O)CC(=O)[C@@H](C)[C@@H](O)CC[C@@H](C)[C@@H]1O[C@]2(CC[C@@H](C)[C@H](CC[C@H](C)C(C)=O)O2)CC[C@@H]1C)[C@H](OC(=O)CCCP(=O)(O)O)C(C)C` [4-Phosphono-butyric acid (1R,2S,3R,6S,7S,10R)-10-[(2S,3S,6R,8S,9R)-3,9-dimethyl-8-((S)-3-methyl-4-oxo-pentyl)-1,7-dioxa-spiro[5.5]undec-2-yl]-3,7-dihydroxy-1-isopropyl-2-methoxy-6-methyl-5-oxo-undecyl ester], the IC50 is reported as 300 µM. Compound `CO[C@@H]([C@H](O)CC(=O)[C@@H](C)[C@@H](O)CC[C@@H](C)[C@@H]1O[C@]2(CC[C@@H](C)[C@H](CC[C@H](C)C(C)=O)O2)CC[C@@H]1C)[C@H](OC(=O)C[C@@H](O)/C=C(\C)C(=O)O)C(C)C` [(E)-(R)-4-Hydroxy-2-methyl-hex-2-enedioic acid 6-{(1R,2S,3R,6S,7S,10R)-10-[(2S,3S,6R,8S,9R)-3,9-dimethyl-8-((S)-3-methyl-4-oxo-pentyl)-1,7-dioxa-spiro[5.5]undec-2-yl]-3,7-dihydroxy-1-isopropyl-2-methoxy-6-methyl-5-oxo-undecyl} ester] has an IC50 of 4 µM. `CO[C@@H]([C@H](O)CC(=O)[C@@H](C)[C@@H](O)CC[C@@H](C)[C@@H]1O[C@]2(CC[C@@H](C)[C@H](CC[C@H](C)C(C)=O)O2)CC[C@@H]1C)[C@H](OC(=O)C[C@@](C)(O)C(=O)O)C(C)C` [(R)-2-Hydroxy-2-methyl-succinic acid 4-{(1R,2S,3R,6S,7S,10R)-10-[(2S,3S,6R,8S,9R)-3,9-dimethyl-8-((S)-3-methyl-4-oxo-pentyl)-1,7-dioxa-spiro[5.5]undec-2-yl]-3,7-dihydroxy-1-isopropyl-2-methoxy-6-methyl-5-oxo-undecyl} ester] gave an IC50 of 100 µM. In the case of `CO[C@@H]([C@H](O)CC(=O)[C@@H](C)[C@@H](O)CC[C@@H](C)[C@@H]1O[C@]2(CC[C@@H](C)[C@H](CC[C@H](C)C(C)=O)O2)CC[C@@H]1C)[C@H](OC(=O)C[C@](C)(O)C(=O)O)C(C)C` [(S)-2-Hydroxy-2-methyl-succinic acid 4-{(1R,2S,3R,6S,7S,10R)-10-[(2S,3S,6R,8S,9R)-3,9-dimethyl-8-((S)-3-methyl-4-oxo-pentyl)-1,7-dioxa-spiro[5.5]undec-2-yl]-3,7-dihydroxy-1-isopropyl-2-methoxy-6-methyl-5-oxo-undecyl} ester], the IC50 is reported as 29 µM.

From BindingDB's records for doi:10.1016/s0960-894x(03)00105-7 (University of California Irvine, 2003)
